From publication PMC12062775, “Shifting the substrate scope of dimeric pyranose oxidase from monosaccharide to glycoside preference through oligomeric state modification” (The Febs Journal, 2025)

Assays:
[1] = system: T1, KaPOx_xal; experiment: Amplex Red / horseradish peroxidase coupled oxidase assay, steady state; type: biochemical, Kitasatospora aureofaciens; details: air O2 ~250 μM, 50 mM Tris/HCl pH 7.5, 30 °C; read-out: [drawing 2] Phlorizin / K m/mM
T1 construct: gene KaPOx; KaPOx with arm domain and oligomerization loop replaced by ScPOx insertion-1 domain and flexible loop; C-terminal His6; pET-21a(+), E. coli T7 Express
Source text: Amplex Red / horseradish peroxidase coupled oxidase assay, steady state on KaPOx_xal

[2] = system: T2, KaPOx_xalh; experiment: as above; type: biochemical, Kitasatospora aureofaciens; details: air O2 ~250 μM, 50 mM Tris/HCl pH 7.5, 30 °C; read-out: [drawing 2] Phlorizin / K m/mM
T2 construct: gene KaPOx; C-terminal His6; pET-21a(+), E. coli T7 Express
Source text: Amplex Red / horseradish peroxidase coupled oxidase assay, steady state on KaPOx_xalh

Km [1]: 0.015 ± 0.002 mM
Km [2]: 0.019 ± 0.003 mM
SMILES: O=C(CCc1ccc(O)cc1)c1c(O)cc(O)cc1O[C@@H]1O[C@H](CO)[C@@H](O)[C@H](O)[C@H]1O [Phlorizin]
